Details of data set [1]: method as in Mueck et al. [2013]. The conditions noted are these: co-administration of ketoconazole; ref Mueck et al. [2013]; cited from earlier work.
The subject of the next data set is CYP3A4. Set-up: method as in Kvasnicka et al. [2017]. The following applies: ref Kvasnicka et al. [2017]; cited from earlier work.
The next data set concerns CYP2J2. More on the design: method as in Kvasnicka et al. [2017]. The conditions noted are these: ref Kvasnicka et al. [2017]; cited from earlier work.
On the set-up of data set [2]: method as in Mega et al. [2012]. The following applies: low-dose rivaroxaban (2.5 mg or 5 mg twice daily) co-administered with DAPT; ref Mega et al. [2012]; cited from earlier work.
The nature of data set [3]: Enzyme kinetics of rivaroxaban metabolism in rat liver microsomes. The class given is in vitro ADME, Sprague-Dawley rat. The conditions noted are these: Sprague-Dawley, rat, rat liver microsomes, pH 7.4, RLMs 0.5 mg/mL, 37 °C, 1 mM NADPH, R squared 0.979. How it is done: (§1) The pooled rat liver microsomes (RLMs) were obtained from 8 rats, which were weighed and homogenized with cold […] phosphate-buffered saline (PBS) containing 0.25 mM sucrose. After centrifuging at 11000 rpm for 15 min, the supernatants were separated and transferred into new tubes for another 15 min centrifugation at 11000 rpm. Then ultracentrifugation was performed at 10000 rpm at 4 °C for 1 h, and the microsomal pellets were resuspended with cold 0.01 mM PBS and stored at −80 °C. The protein concentration of RLMs was determined using the Bradford Protein Assay Kit (Thermo Scientific, Waltham, MA, USA). […] The incubation time was 30 min. Incubations were initiated following a 5 min pre-incubation in a shaking water bath at 37 °C. 1 mM NADPH was added to initiate the reaction in a final volume of 200 μL. The reaction was stopped immediately by cooling to −80 °C. After that, 20 μL IS working solution and 200 μL acetonitrile were added. Centrifugation was performed at 13000 rpm for 5 min after vortexing for 1 min, and the supernatant was collected. Each incubation sample study was performed in separate EP tubes, performed in triplicate and analysed by UPLC-MS/MS. We selected 2 μL of RLMs with a concentration of 0.5 mg/mL in PBS for 30 minutes as the condition for enzyme kinetic studies. […]
On the technique in general: Liver microsomes are a subcellular fraction often used to study metabolism.

The subject of data set [4] is rat liver microsomes (RLMs). Described as above. The class given is in vitro ADME, Sprague-Dawley rat. The conditions noted are these: RLMs 0.5 mg/mL, 30 min, 37 °C, 1 mM NADPH, R squared 0.979. How it is done:
as §1

Details of data set [5]: method as in Abrams and Emerson [2009]. The conditions noted are these: phase I trials; ref Abrams and Emerson [2009]; cited from earlier work.
On the set-up of data set [6]: method as in Eriksson et al. [2009]; Altena et al. [2014]. The conditions noted are these: with CYP3A4 inducer rifampicin; ref Eriksson et al. [2009]; Altena et al. [2014]; cited from earlier work.

Consider `O=C(NC[C@H]1CN(c2ccc(N3CCOCC3=O)cc2)C(=O)O1)c1ccc(Cl)s1` [Rivaroxaban], for which, in data set [1], the “increase in Cmax value of rivaroxaban” value was 1.7 fold and the “increase in the mean AUC value of rivaroxaban” value is 2.6 fold. Further, in the data set with CYP3A4, the “share of total rivaroxaban elimination involving CYP3A4” value is listed as “about 18%”. Besides, the “share of total rivaroxaban elimination involving CYP2J2” value in the data set on CYP2J2 is recorded as “about 14%”. Also, in data set [2], the “risk of intracranial hemorrhage” value is on record as 0.6% and the “risk of major bleeding” value was 2.1%. In data set [3], the Michaelis-Menten constant (Km) (in general, the concentration of substrate that gives half-maximal velocity) at 30 min came to 19.1 µM. For the same compound, in data set [4], the Vmax (commonly the rate approached at saturating substrate) is 3.37 pmol/min/mg. The “time to peak plasma concentration (Tmax)” value in data set [5] was 1.5 to 4 h. In addition, the “reduction in the systemic exposure of rivaroxaban” value in data set [6] was 50%.

The values above are taken from publication PMC7470163, “Effects of ticagrelor on the pharmacokinetics of rivaroxaban in rats” (Pharmaceutical Biology, 2020).
